Assay results as given in patent US7888332B2, “Hydrazide-containing CFTR inhibitor compounds and uses thereof” (The Regents of the University of California, priority 2004, dated 2011).
Like-named read-outs stand apart in the source and are kept apart here.

Columns and labels:
CFTR [1] = target: T1, CFTR (Homo sapiens, UniProt P13569); assay: Short-circuit current (apical Cl− current) analysis on permeabilized CFTR-expressing FRT cells; settings: for inhibition at 50 µM: FRT, read-out: % inhibition at 50 μM; for change of inhibitory potency relative to parent compound: vs GlyH-101 / GlyH-102
Target sequence in this assay (P13569 whole entry): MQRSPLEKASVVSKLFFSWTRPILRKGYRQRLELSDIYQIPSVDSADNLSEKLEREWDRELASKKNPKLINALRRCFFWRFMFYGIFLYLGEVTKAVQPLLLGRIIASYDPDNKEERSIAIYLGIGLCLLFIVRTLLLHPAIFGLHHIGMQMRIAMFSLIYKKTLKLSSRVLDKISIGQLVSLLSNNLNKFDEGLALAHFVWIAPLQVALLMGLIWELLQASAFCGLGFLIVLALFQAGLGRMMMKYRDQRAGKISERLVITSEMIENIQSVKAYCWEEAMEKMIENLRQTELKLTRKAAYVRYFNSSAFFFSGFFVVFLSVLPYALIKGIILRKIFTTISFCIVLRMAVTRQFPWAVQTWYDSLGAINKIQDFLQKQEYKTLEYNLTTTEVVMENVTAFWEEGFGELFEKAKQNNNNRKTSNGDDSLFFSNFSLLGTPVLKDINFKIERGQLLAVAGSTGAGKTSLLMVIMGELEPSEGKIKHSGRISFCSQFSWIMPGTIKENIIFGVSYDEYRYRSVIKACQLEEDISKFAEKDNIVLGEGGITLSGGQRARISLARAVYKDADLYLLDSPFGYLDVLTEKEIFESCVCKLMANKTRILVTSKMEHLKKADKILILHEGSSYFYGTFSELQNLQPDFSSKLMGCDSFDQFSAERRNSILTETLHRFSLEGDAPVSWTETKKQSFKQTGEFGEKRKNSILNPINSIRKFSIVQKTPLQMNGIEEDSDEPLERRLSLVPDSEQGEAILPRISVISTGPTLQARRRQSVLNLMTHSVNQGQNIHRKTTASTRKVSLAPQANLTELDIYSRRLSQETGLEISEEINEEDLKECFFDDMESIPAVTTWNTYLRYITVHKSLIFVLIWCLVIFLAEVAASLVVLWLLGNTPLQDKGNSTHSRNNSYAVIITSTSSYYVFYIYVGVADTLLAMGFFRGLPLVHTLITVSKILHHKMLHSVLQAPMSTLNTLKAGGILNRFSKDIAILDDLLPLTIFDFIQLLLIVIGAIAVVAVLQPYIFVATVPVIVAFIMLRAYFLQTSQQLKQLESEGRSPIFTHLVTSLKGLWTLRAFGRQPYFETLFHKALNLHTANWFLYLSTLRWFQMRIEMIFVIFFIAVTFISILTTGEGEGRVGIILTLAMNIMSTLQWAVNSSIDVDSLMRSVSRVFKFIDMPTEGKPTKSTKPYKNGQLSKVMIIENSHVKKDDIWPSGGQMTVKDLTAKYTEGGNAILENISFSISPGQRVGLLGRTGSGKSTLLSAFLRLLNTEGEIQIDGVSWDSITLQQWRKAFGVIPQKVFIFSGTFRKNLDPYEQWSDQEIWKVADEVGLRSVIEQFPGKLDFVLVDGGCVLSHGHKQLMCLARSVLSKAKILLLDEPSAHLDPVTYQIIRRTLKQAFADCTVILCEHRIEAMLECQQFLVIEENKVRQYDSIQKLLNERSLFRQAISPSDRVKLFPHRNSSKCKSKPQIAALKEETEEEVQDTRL

[2] = system: upper airway CFTR Cl− conductance; assay: Nasal potential difference measurements in mice; settings: compound in all solutions (100 μM)
CFTR [3] = target: T1, CFTR; assay: Whole-cell patch-clamp on FRT cells expressing CFTR; assay type: cell-based; design: expressed in transfected cells; host or cells: Fisher Rat Thyroid (FRT) cells, stably transfected; settings: GlyH-101 at submaximal concentrations; CFTRinh-172 5 μM
Experimental: Patch-clamp experiments were carried out at room temperature on FRT cells stably expressing wildtype CFTR. Cell-attached and whole-cell configurations were used (Hamill et al., Pflugers Arch. 391:85-100, 1981). The cell membrane was clamped at specified voltages using an EPC-7 patch-clamp amplifier (List Medical). Data were filtered at 500 Hz and digitized at 2000 Hz. For whole-cell experiments the pipette solution contained (in mM): 120 CsCl, 10 TEA-Cl, 0.5 EGTA, 1 MgCl2, 40 mannitol, 10 Cs-HEPES and 3 mM MgATP (pH 7.3). For cell attached experiments EGTA was replaced with 1 mM CaCl2. The bath solution for whole-cell experiments contained (in mM): 150 NaCl, 1 CaCl2, 1 MgCl2, 10 glucose, 10 mannitol, 10 Na-TES (pH 7.4). In cell-attached experiments the bath solution contained (in mM): 130 KCl, 2 NaCl, 2 CaCl2, 2 MgCl2, 10 glucose, 20 mannitol, and 10 K-Hepes (pH 7.3). Inhibitors were applied by extracellular perfusion. CFTR channel activity in cell-attached patches was analyzed as described previously (Taddei et al., FEBS Lett. 558:52-56, 2004).
The mechanism of CFTR block by GlyH-101 was studied using the whole-cell configuration of the patch-clamp technique. After maximal activation of CFTR in stably transfected FRT cells by 5 μM forskolin, current-voltage relationships were measured at GlyH-101 concentrations from 0 to 50 μM. […] Extracellular perfusion with 10 μM GlyH-101 produced an immediate reduction in current that was strongly dependent on membrane potential (FIG. 4A, right panel). At more positive membrane potentials outward positive currents (Cl^− movement into the cell) were reduced compared to inward currents. […] Data for the thiazolidinone 3-[(3-trifluoromethyl)phenyl]-5-[(4-carboxyphenyl)methylene]-2-thioxo-4-thiazolidinone (referred to herein as CFTRinh-172) (5 μM) is shown for comparison. […] FIG. 4C summarizes percentage CFTR current block as a function of GlyH-101 concentration at different membrane voltages.
Target sequence in this assay (P13569 whole entry): as above

[4] = Intestinal absorption in closed mid-jejunal loops; assay type: in vivo; settings: mice, 2 hours
Experimental: Absorption studies were performed using mid-jejunal loops created as described above. […] After 2 hours loop fluid was withdrawn and optical absorbance of test compound and FITC were measured (OD342/OD494nm). Percentage intestinal absorption was computed assuming zero absorption of FITC-dextran.
Intestinal absorption was measured in mice in vivo from the disappearance of MalH compounds from the lumens of closed mid-jejunal loops over 2 hours. In these experiments mannitol was included in the MalH-containing solutions to prevent fluid absorption. Absorption rates were referenced against a large FITC-dextran, which was assumed to undergo no absorption over the 2 hour study.

CFTR [5] = target: T1, CFTR; design: host or cells: 'permeabilized cell preparations' and 'most intact epithelial cells' (not specified); settings: cited from earlier work
Target sequence in this assay (P13569 whole entry, species assumed): as the sequence (P13569 whole entry) above

[6] = Spectrophotometric pH titration (pKa); assay type: physicochemical; settings: read-out: pKa, secondary amine
Experimental: FIG. 5A is a graph illustrating the pH-dependent absorbance changes (right panel) of the chemical compounds (10 μM) (corresponding chemical structures, left panel) in NaCl (100 mM) containing MES, HEPES, boric acid, and citric acid (each 10 mM) titrated to different pH using HCl/NaOH. Absorbance changes measured at analytical wavelengths of 346, 348, 346, and 236 nm (top to bottom).

[7] = Ki, Table 2, Group II, concentration giving 50% inhibition of CFTR Cl− conductance
[8] = Ki, Table 1, Group I, concentration giving 50% inhibition of CFTR Cl− conductance
[9] = Ki, Table 4, Group IV, concentration giving 50% inhibition of CFTR Cl− conductance
[10] = Ki, Table 3, Group III, concentration giving 50% inhibition of CFTR Cl− conductance
[11] = Table 1, Group I, concentration giving 50% inhibition of CFTR Cl− conductance

Row | SMILES | inhibition at 50 µM (CFTR [1]) [%] | Ki (CFTR [1]; [8]) [µM] | also measured
1 | O=C(NNC(=O)c1cc(Br)c(O)c(Br)c1)C(=O)Nc1ccc2ccccc2c1 [OxaH-204] | – | – | Ki (CFTR [1]; [7]): > 50 µM
2 | O=C(CNc1ccc(Cl)cc1)NN=Cc1cc(Br)c(O)c(Br)c1O [GlyH-115] | 91 | 5 | –
3 | O=C(CNc1ccc(Cl)cc1)NN=Cc1cc(Br)c(O)c(Br)c1 [GlyH-114] | 95 | 5 | –
4 | O=S(=O)(O)c1cc(N=C=S)ccc1C=Cc1ccc(N=C=S)cc1S(=O)(=O)O [DIDS, reference compound] | – | – | inhibition of (CFTR-independent) hyperpolarization produced by low Cl− [2]: partial inhibition
5 | Cc1ccc(CC(=O)NN=Cc2cc(Br)c(O)c(Br)c2O)cc1 [AceH-403] | 54 | – | Ki (CFTR [1]; [9]): 10 µM
6 | Cc1ccc(NCC(=O)NN=Cc2cc(Br)c(O)c(Br)c2O)cc1 [GlyH-116] | 79 | 10 | –
7 | COc1c(Br)cc(C=NNC(=O)CNc2ccc3ccccc3c2)c(O)c1Br [GlyH-103] | 56 | 20 | –
8 | Cc1ccc(CC(=O)NN=Cc2cc(Br)c(O)c(Br)c2)cc1 [AceH-404] | 63 | – | Ki (CFTR [1]; [9]): 15 µM
9 | O=C(CNc1ccc2ccccc2c1)N/N=C/c1cc(Br)c(O)c(Br)c1 [GlyH-102] | – | – | % inhibition at 50 μM (CFTR [1]; Table 1, Group I): 98%; Ki (CFTR [1]; [11]): 5 µM
10 | CC(Nc1ccc2ccccc2c1)C(=O)NN=Cc1cc(Br)c(O)c(Br)c1O (stereo not shown) [GlyH-106] | – | – | % inhibition at 50 μM (CFTR [1]; Table 1, Group I): 91%; Ki (CFTR [1]; [11]): 6 µM
11 | O=C(NNC(=O)c1cc(Br)c(O)c(Br)c1O)C(=O)Nc1ccc2ccccc2c1 [OxaH-203] | – | – | Ki (CFTR [1]; [7]): > 50 µM
12 | CC(=NNC(=O)CNc1ccc2ccccc2c1)c1cc(Br)c(O)c(Br)c1O [GlyH-108] | – | – | % inhibition at 50 μM (CFTR [1]; Table 1, Group I): 81%; Ki (CFTR [1]; [11]): 10 µM
13 | O=C(O)c1ccc(C=C2SC(=S)N(c3cccc(C(F)(F)F)c3)C2=O)cc1 [CFTRinh-172, 3-[(3-trifluoromethyl)phenyl]-5-[(4-carboxyphenyl)methylene]-2-thioxo-4-thiazolidinone] | – | – | current-voltage relationship (CFTR [3]): linear; absorption from closed mid-jejunal loops [4]: > 90%; Ki (CFTR [5]; most intact epithelial cells): 2 to 5 µM; Ki (CFTR [5]; permeabilized cell preparations): 0.2 to 0.3 µM
14 | O=C(CNc1cccc2ccccc12)NN=Cc1cc(Br)c(O)c(Br)c1O [GlyH-104] | 86 | 12 | change of inhibitory potency relative to parent compound (CFTR [1]): ten-fold
15 | CCOC(=O)CNc1ccc2ccccc2c1 [ethyl N-(2-napthalenyl) glycinate, ethyl N-(2-naphthalenyl)glycinate] | – | – | pKa [6]: ~4.7

Further lines, with some results ahead:

Row | inhibition at 50 µM (CFTR [1]) [%] | Ki (CFTR [1]; [8]) [µM] | SMILES | also measured
16 | 90 | 3 | CC(=NNC(=O)C(=O)Nc1ccc2ccccc2c1)c1cc(Br)c(O)c(Br)c1 [OxaH-113] | –
17 | 78 | – | O=C(NNCc1cc(Br)c(O)c(Br)c1)C(=O)Nc1ccc2ccccc2c1 [OxaH-304] | Ki (CFTR [1]; [10]): 12 µM
18 | 95 | 3 | CC(=NNC(=O)C(=O)Nc1ccc2ccccc2c1)c1cc(Br)c(O)c(Br)c1O [OxaH-112] | –
19 | 57 | – | O=C(CNc1ccc2ccccc2c1)NNC(=O)c1cc(Br)c(O)c(Br)c1 [GlyH-202, 3,5-dibromo-4-hydroxy-[2-(2-napthalenamine)aceto]benzoic acid hydrazide] | Ki (CFTR [1]; [7]): 22 µM
20 | 100 | 2.5 | CC(=NNC(=O)CNc1ccc2ccccc2c1)c1cc(Br)c(O)c(Br)c1 [GlyH-109] | –
21 | 70 | – | O=C(NNCc1cc(Br)c(O)c(Br)c1O)C(=O)Nc1ccc2ccccc2c1 [OxaH-303] | Ki (CFTR [1]; [10]): 10 µM
22 | 52 | 2.5 | O=C(NN=Cc1cc(Br)c(O)c(Br)c1)C(=O)Nc1ccc2ccccc2c1 [OxaH-111] | change of inhibitory potency relative to parent compound (CFTR [1]): two-three fold greater
23 | 87 | 15 | O=C(CNc1cccc2ccccc12)NN=Cc1cc(Br)c(O)c(Br)c1 [GlyH-105] | –
24 | 86 | 2 | O=C(NN=Cc1cc(Br)c(O)c(Br)c1O)C(=O)Nc1ccc2ccccc2c1 [OxaH-110, N-2-napthalenyl-[(3,5-dibromo-2,4-dihydroxyphenyl)methylene]oxamic acid hydrazide] | Ki (CFTR [1]; apparent Ki, CFTR stimulated by 100 μM CPT-cAMP): ~2 µM; change of inhibitory potency relative to parent compound (CFTR [1]): two-three fold greater
25 | 80 | 10 | CC(Nc1ccc2ccccc2c1)C(=O)NN=Cc1cc(Br)c(O)c(Br)c1 (stereo not shown) [GlyH-107] | –
26 | 86 | – | O=C(COc1ccc2ccccc2c1)NN=Cc1cc(Br)c(O)c(Br)c1 [AceH-402] | Ki (CFTR [1]; [9]): 17 µM
27 | 84 | – | O=C(COc1ccc2ccccc2c1)NN=Cc1cc(Br)c(O)c(Br)c1O [AceH-401] | Ki (CFTR [1]; [9]): 21 µM
28 | 55 | – | O=C(CNc1ccc2ccccc2c1)NNCc1cc(Br)c(O)c(Br)c1 [GlyH-302] | Ki (CFTR [1]; [10]): ~50 µM
